Test results: patent US20090099243A1, “ORGANIC COMPOUNDS” (priority 2007, published 2009)

Target: T1, recombinant human NPY Y2 receptors (Homo sapiens, UniProt P49146)
T1 construct: expressed in transfected cells; host or cells: CHO-C4 cells (membrane preparation)
T1 sequence (P49146 1-381): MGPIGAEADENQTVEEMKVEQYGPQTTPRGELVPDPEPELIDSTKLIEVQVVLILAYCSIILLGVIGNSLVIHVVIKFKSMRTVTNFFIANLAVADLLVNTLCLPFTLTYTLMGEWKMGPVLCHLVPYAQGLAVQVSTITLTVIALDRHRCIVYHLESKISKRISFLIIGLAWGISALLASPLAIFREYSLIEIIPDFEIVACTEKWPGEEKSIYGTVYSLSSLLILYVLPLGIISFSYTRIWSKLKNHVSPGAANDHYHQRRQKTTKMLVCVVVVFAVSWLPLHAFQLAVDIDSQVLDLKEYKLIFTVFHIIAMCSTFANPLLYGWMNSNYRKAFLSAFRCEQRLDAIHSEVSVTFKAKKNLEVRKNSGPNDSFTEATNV
Test: Scintillation proximity [35S]GTPγS binding assay (inhibition of 0.5 nM NPY-stimulated [35S]GTPγS binding)
Format: biochemical
Conditions: 10 μM compound, CHO-C4 membranes; for inhibition at 10 µM: read-out: [%] inhibiton at 10 μM
Procedure: Preparation of Membranes: CHO—C4 cells expressing recombinant human NPY Y2 receptors were used to prepare membranes for the GTPγS assay. Cells were grown to 80-95% confluency on 15-cm (225 cm^2) tissue culture plates. After aspiration of the culture medium, cells were washed twice with 18 ml ice-cold phosphate-buffered saline (PBS), scraped off and suspended in 3 ml ice-cold PBS in pre-cooled centrifuge tubes. The dishes were rinsed with 2 ml ice-cold PBS per dish and the washings were combined with the PBS cell suspension from above. Cells pooled from 5-7 dishes were centrifuged for 5 min at 10,000 rpm (12,000 g) in a Sorvall RC5B centrifuge using an SS34 rotor at 4° C. The cell pellet was resuspended in 5 ml ice-cold buffer (20 mM HEPES, 10 mM EDTA; pH 7.4) by vortexing (2-5 sec), homogenized using a Polytron (step 4 for 20-30 sec), and ice-cold buffer added to 25 ml. The suspension was centrifuged again for 20 min at 18,000 rpm (39,000 g) at 4° C. and the pellet resuspended in 5 ml ice-cold buffer (20 mM HEPES, 0.1 mM EDTA; pH 7.4) by vortexing (2-5 sec), homogenized with a Polytron (step 4 for 10 sec), and ice-cold buffer added to 25 ml. The suspension was centrifuged a third time for 20 min at 18,000 rpm (39,000 g) at 4° C. The pellet was resuspend in 1 ml ice-cold buffer (20 mM Hepes, 0.1 mM EDTA; pH 7.4) by vortexing (5-8 sec). Two to five resuspended pellets were combined and homogenized using a Polytron (step 4 for 15-25 sec). A small aliquot (20-50 μl) was removed for protein determination by the Coomassie Plus Protein Assay Reagent (Pierce) using BSA as standard. The membrane suspension was aliquoted in pre-cooled (on dry ice) Eppendorf tubes (0.25-1 ml/tube affording approximately 0.5-2 mg of membrane protein/tube). The pellets were frozen and stored at −80° C.
Scintillation proximity [^35S]GTPγS binding assay: Frozen membranes from CHO—C4 cells expressing recombinant human NPY Y2 receptors (2 mg for four 96-well plates) were thawed on ice. Thawed membranes were pipetted into 10 ml of assay buffer (20 mM. HEPES, 10 mM MgCl2, 100 mM NaCl, pH 7.4) and homogenized briefly using a Polytron. The final assay mixture was prepared in 96-well microtiter plates (Isoplate Wallac, Perkin Elmer). The composition of the assay mixtures in a final volume of 250 μl per well was as follows: 20 mM HEPES, 10 mM MgCl2, 100 mM NaCl, pH 7.4, 30 μM GDP, 1 mg/ml BSA (added fresh), 5 μg membrane protein, 1.5 mg Wheatgerm agglutinin SPA beads (Amersham), 0.45 nM [^35S]GTPγS (Amersham, SJ1308, 1000 Ci/mmol, stabilized solution), and the test compounds (agonists and/or antagonists) at the appropriate concentrations. The samples were incubated at room temperature for 90 min by shaking, after which the SPA beads were sedimented by centrifugation in an Eppendorf 5804 centrifuge at 2700 rpm for 10 min at room temperature. After 60 min the plates were counted in a TopCount (Canberra). Basal [^35S]GTPγS binding was measured in the absence of agonist (NPY). Non-specific binding was measured in the presence of excess (10 μM) unlabelled GTPγS (Sigma). Nonspecific binding never exceeded 10% of basal binding and was thus not subtracted from the experimental data. Antagonists were tested for the inhibition of 0.5 nM NPY-stimulated [^35S]GTPγS binding. Antagonist inhibition curves were analyzed by non-linear regression using GraphPad Prism software (Version 4.0, GraphPad Software Inc., CA, USA).
Antagonistic activity of compounds of the present invention was examined by the Scintillation proximity [35S]GTPγS binding assay as described above (inhibition of 0.5 nM NPY-stimulated [^35S]GTPγS binding). The table below represents percentages of inhibition at a concentration of 10 μM.

SMILES | [%] inhibiton at 10 μM | inhibition at 10 µM
Cc1noc(C)c1CC(=O)Nc1ccc(C(=O)CN2C(=O)NC(c3ccccc3)(c3ccccc3)C2=O)cc1 [Example 27, 2-(3,6-Dimethyl-isoxazol-4-yl)-N-{4-[2-(2,5-dioxo-4,4-diphenyl-imidazolidin-1-yl)-acetyl]-phenyl}-acetamide] | 96% | –
CC(C)CC(=O)Nc1ccc(C(=O)CN2C(=O)NC(c3ccccc3)(c3ccccc3)C2=O)c(F)c1 [Example 9, N-{4-[2-(2,5-Dioxo-4,4-diphenyl-imidazolidin-1-yl)-acetyl]-3-fluoro-phenyl}-3-methyl-butyramide] | – | 83%
CCC1(c2ccccc2)NC(=O)N(CC(=O)c2ccc(NC(=O)CC(C)C)cc2F)C1=O (racemic) [Example 13, (±)-N-{4-[2-(4-Ethyl-2,5-dioxo-4-phenyl-imidazolidin-1-yl)-acetyl]-3-fluoro-phenyl}-3-methyl-butyramide] | – | 78%
Cc1cnn(C)c1CC(=O)Nc1ccc(C(=O)CN2C(=O)NC(c3ccccc3)(c3ccccc3)C2=O)cc1 [Example 49, 2-(2,4-Dimethyl-2H-pyrazol-3-yl)-N-{4-[2-(2,5-dioxo-4,4-diphenyl-imidazolidin-1-yl)-acetyl]-phenyl}-acetamide] | – | 64%
CCCC1(c2ccccc2)NC(=O)N(CC(=O)c2ccc(NC(=O)C(CC)CC)cc2)C1=O (single isomer, unassigned; (-)) [Example 31] | 97% | –
CCCC1(c2ccccc2)NC(=O)N(CC(=O)c2ccc(NC(=O)C(CC)CC)cc2)C1=O (racemic) [Example 24, (±)-N-{4-[2-(2,5-Dioxo-4-phenyl-4-propyl-imidazolidin-1-yl)-acetyl]-phenyl}-2-ethyl-butyramide] | – | 96%
COc1ccc(F)cc1CC(=O)Nc1ccc(C(=O)CN2C(=O)NC(c3ccccc3)(c3ccccc3)C2=O)cc1 [Example 50, N-{4-[2-(2,5-Dioxo-4,4-diphenyl-imidazolidin-1-yl)acetyl]-phenyl}-2-(5-fluoro-2-methoxy-phenyl)-acetamide] | – | 80%
CCC(=O)Nc1ccc(C(=O)CN2C(=O)NC(c3ccc(F)cc3)(c3ccc(F)cc3)C2=O)cc1 [Example 12, N-(4-{2-[4,4-Bis-(4-fluoro-phenyl)-2,5-dioxo-imidazolidin-1-yl]-acetyl}-phenyl)-propionamide] | – | 42%
COc1ccc(CC(=O)Nc2ccc(C(=O)CN3C(=O)NC(c4ccccc4)(c4ccc(C)cc4)C3=O)cc2)c(OC)c1 (racemic) [Example 41, (±)-2-2,4-Dimethoxy-phenyl)-N-{4-[2-(2,5-dioxo-4-phenyl-4-p-tolyl-imidazolidin-1-yl)-acetyl]-phenyl}-acetamide] | 60% | –
CCCC1(c2ccccc2)NC(=O)N(CC(=O)c2ccc(NC(=O)C3CCOC3)cc2)C1=O (stereo not shown) [Example 22, Tetrahydro-furan-3-carboxylic acid {4-[2-(2,5-dioxo-4-phenyl-4-propyl-imidazolidin-1-yl)-acetyl]-phenyl}-amide] | – | 83%
CCCC1(c2ccccc2)NC(=O)N(CC(=O)c2ccc(NC(=O)C3CCCN3)cc2)C1=O (stereo not shown) [Example 23, Pyrrolidine-2-carboxylic acid {4-[2-(2,5-dioxo-4-phenyl-4-propyl-imidazolidin-1-yl)-acetyl]-phenyl}-amide] | – | 36%
CCCC1(c2ccccc2)NC(=O)N(CC(=O)c2ccc(NC(=O)CC(C)C)cc2F)C1=O (racemic) [Example 5, (±)-N-{4-[2-(2,5-Dioxo-4-phenyl-4-propyl-imidazolidin-1-yl)-acetyl]-3-fluoro-phenyl}-3-methyl-butyramide] | – | 63%
Cc1ccc(C2(c3ccccc3)NC(=O)N(CC(=O)c3ccc(NC(=O)Nc4ccccc4F)cc3)C2=O)cc1 (racemic) [Example 39, (±)-1-{4-[2-(2,5-Dioxo-4-phenyl-4-p-tolyl-imidazolidin-1-yl)-acetyl]-phenyl}-3-(2-fluoro-phenyl)-urea] | – | 44%
COc1ccccc1CC(=O)Nc1ccc(C(=O)CN2C(=O)NC(c3ccccc3)(c3ccc(C)cc3)C2=O)cc1 (racemic) [Example 40, (±)-N-{4-[2-(2,5-Dioxo-4-phenyl-4-p-tolyl-imidazolidin-1-yl)-acetyl]-phenyl}-2-(2-methoxy-phenyl)-acetamide] | – | 70%

Results, then the compound that gave them:

[%] inhibiton at 10 μM | inhibition at 10 µM | SMILES
– | 56% | CCCC1(c2ccccc2)NC(=O)N(CC(=O)c2ccc(NC(=O)Nc3ccccc3F)cc2)C1=O (racemic) [Example 44, (±)-1-{4-[2-(2,5-Dioxo-4-phenyl-4-propyl-imidazolidin-1-yl)-acetyl]-phenyl}-3-(2-fluoro-phenyl)-urea]
99% | – | CCCC1(c2ccccc2)NC(=O)N(CC(=O)c2ccc(NC(=O)Cc3c(C)noc3C)cc2)C1=O (single isomer, unassigned; (-)) [Example 29]
– | 105% | CCCC1(c2ccccc2)NC(=O)N(CC(=O)c2ccc(NC(=O)Nc3c(C)noc3C)cc2F)C1=O (racemic) [Example 1, (±)-1-(3,5-Dimethyl-isoxazol-4-yl)-3-{4-[2-(2,5-dioxo-4-phenyl-4-propyl-imidazolidin-1-yl)-acetyl]-3-fluoro-phenyl}-urea]
90% | – | CCCC1(c2ccccc2)NC(=O)N(CC(=O)c2ccc(NC(=O)C(CC)CC)cc2)C1=O (single isomer, unassigned; (+)) [Example 32]
– | 97% | CCCC1(c2ccccc2)NC(=O)N(CC(=O)c2ccc(NC(=O)Cc3c(C)noc3C)cc2)C1=O (racemic) [Example 21, (±)-2-(3,5-Dimethyl-isoxazol-4-yl)-N-{4-[2-(2,5-dioxo-4-phenyl-4-propyl-imidazolidin-1-yl)-acetyl]-phenyl}-acetamide]
– | 99% | Cc1ccc(C2(c3ccccc3)NC(=O)N(CC(=O)c3ccc(NC(=O)Cc4c(C)noc4C)cc3)C2=O)cc1 (racemic) [Example 42, (±)-2-(3,5-Dimethyl-isoxazol-4-yl)-N-{4-[2-(2,5-dioxo-4-phenyl-4-p-tolyl-imidazolidin-1-yl)-acetyl]-phenyl}-acetamide]
– | 98% | CCC1(c2ccccc2)NC(=O)N(CC(=O)c2ccc(NC(=O)Nc3c(C)noc3C)cc2)C1=O (racemic) [Example 2, (±)-1-(3,5-Dimethyl-isoxazol-4-yl)-3-{4-[2-(4-ethyl-2,5-dioxo-4-phenyl-imidazolidin-1-yl)-acetyl]-phenyl}-urea]
– | 32% | CCC1(c2ccccc2)NC(=O)N(Cc2ccc(NC(=O)Nc3c(C)noc3C)cc2)C1=O (racemic) [Example 19, (±)-1-(3,5-Dimethyl-isoxazol-4-yl)-3-[4-(4-ethyl-2,5-dioxo-4-phenyl-imidazolidin-1-ylmethyl)-phenyl]-urea]
